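Interpolation was linear, between the two tested concentrations surrounding the appropriate level; five concentrations were tested over 48 hours in 96-well plates. GI50 is the concentration that inhibits growth by half.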 Active and inactive are the calls of the source. Rule as the data show it: active = GI50 up to about 1.1 µM and inactive = higher.
Legend:
Experiment in all cases: growth of human tumour cells (NCI), 48 h
[1] = test system: CAKI-1
[2] = test system: DU-145
[3] = test system: HCC 2998
[4] = test system: HL-60
[5] = test system: HOP-62
[6] = test system: HOP-92
[7] = test system: MCF7
[8] = test system: MDA-MB-435
[9] = test system: NCI-H460
[10] = test system: OVCAR-8
[11] = test system: PC-3
[12] = test system: RXF 393
[13] = test system: SF-268
[14] = test system: SF-539
[15] = test system: SK-MEL-28
[16] = test system: SK-MEL-5
[17] = test system: SN12C
[18] = test system: T47D
[19] = test system: EKVX
[20] = test system: NCI-H522

Measured: GI50

C=CC(CCc1ccc(C(=O)OCC)cc1)c1c(N)nc(N)[nH]c1=O (centres undefined)
inactive: [1] 86.3 µM | [2] > 100 µM | [3] > 100 µM | [4] 28.5 µM | [5] > 100 µM | [6] 12.6 µM | [7] 87.7 µM | [8] > 100 µM | [9] > 100 µM | [10] 95.1 µM | [11] 52.6 µM | [12] > 100 µM | [13] > 100 µM | [14] > 100 µM | [15] > 100 µM | [16] 23.5 µM | [17] > 100 µM | [18] 72.4 µM

S=c1[nH]nc(Cn2c3ccc(Br)cc3c3nc4ccccc4nc32)o1
inactive: [1] 41.6 µM | [2] 36.6 µM | [19] 71.6 µM | [3] 38.8 µM | [5] 29.9 µM | [7] 39 µM | [8] 16.7 µM | [9] 36.9 µM | [20] 20.2 µM | [10] 43.2 µM | [11] 4.79 µM | [12] 14.8 µM | [13] > 60.5 µM | [14] 30.4 µM | [15] 27.3 µM | [16] 31.6 µM | [17] 51.9 µM | [18] 47.3 µM

CSC(=O)c1sc(SC)[n+](-c2ccccc2)c1O
inactive: [2] 16 µM | [19] > 10 µM | [3] 19.6 µM | [4] > 10 µM | [5] 17 µM | [7] 25.4 µM | [8] 18.7 µM | [9] 27.9 µM | [20] 10.4 µM | [10] 22.8 µM | [11] 14 µM | [12] 14.5 µM | [13] 16.4 µM | [14] 15.1 µM | [15] 17.7 µM | [16] 20.8 µM | [17] 19.6 µM | [18] 7.35 µM

CCOP(=O)(/C=C\n1cc(C)c(=O)[nH]c1=O)OCC
inactive: [1] > 100 µM | [2] > 100 µM | [19] > 100 µM | [4] > 100 µM | [5] > 100 µM | [7] > 100 µM | [8] > 100 µM | [9] > 100 µM | [20] 12.1 µM | [10] > 100 µM | [11] > 100 µM | [12] > 100 µM | [13] > 100 µM | [14] > 100 µM | [15] > 100 µM | [16] > 100 µM | [17] > 100 µM | [18] > 100 µM

c1ccc2c(c1)SCCCSCCSCCCS2
inactive: [2] > 100 µM | [19] 99.8 µM | [3] > 100 µM | [4] 39.4 µM | [5] > 100 µM | [6] 48.9 µM | [7] > 100 µM | [8] > 100 µM | [9] > 100 µM | [20] > 100 µM | [10] > 100 µM | [11] > 100 µM | [13] > 100 µM | [14] > 100 µM | [15] > 100 µM | [16] > 100 µM | [17] > 100 µM | [18] > 100 µM

Cc1cccc(NC(=S)Nc2cccc(Cl)c2)n1
inactive: [1] > 100 µM | [2] > 100 µM | [19] > 100 µM | [3] > 100 µM | [4] > 100 µM | [5] 39.4 µM | [7] > 100 µM | [8] > 100 µM | [9] > 100 µM | [20] 49.9 µM | [10] > 80.9 µM | [11] > 100 µM | [12] 29.7 µM | [13] > 67.8 µM | [14] 30.1 µM | [15] > 100 µM | [16] > 100 µM | [17] > 100 µM | [18] > 100 µM

Cc1ccc(/C=C2\CCS(=O)(=O)c3ccccc3C2=O)cc1
inactive: [1] 18.3 µM | [2] 14.2 µM | [19] 17.6 µM | [3] 14.7 µM | [4] 19.8 µM | [5] 26.7 µM | [6] 15 µM | [7] 11.9 µM | [8] 20.6 µM | [9] 14.8 µM | [10] 13.9 µM | [11] 20.4 µM | [12] 22.7 µM | [13] 18.3 µM | [14] 12.7 µM | [15] 17.8 µM | [17] 19.1 µM | [18] 16.1 µM

Nc1ncnc2c1ncn2C(=O)NC12CC3CC(CC(C3)C1)C2
inactive: [1] > 100 µM | [2] > 100 µM | [19] > 100 µM | [3] > 100 µM | [4] > 100 µM | [5] > 100 µM | [6] > 100 µM | [7] > 100 µM | [8] > 100 µM | [9] > 100 µM | [10] > 100 µM | [11] > 100 µM | [12] > 100 µM | [13] > 100 µM | [14] > 100 µM | [15] > 100 µM | [16] > 100 µM | [17] > 100 µM | [18] 4.97 µM

C=CCN(c1cc(OC)c2c(c1[N+](=O)[O-])C(C)(SC)C(=O)N2)S(C)(=O)=O (centres undefined)
inactive: [1] > 100 µM | [2] > 100 µM | [3] 65.5 µM | [6] 32.5 µM | [7] > 100 µM | [8] > 100 µM | [9] > 100 µM | [20] 82.2 µM | [10] > 100 µM | [11] > 100 µM | [13] 83.6 µM | [14] > 100 µM | [15] > 100 µM | [16] > 100 µM | [17] > 100 µM | [18] > 100 µM

CC1(C)C2CCC(=O)C1CC2 (centres undefined)
inactive: [1] > 100 µM | [2] > 100 µM | [3] > 100 µM | [4] > 100 µM | [5] > 100 µM | [7] > 100 µM | [8] > 100 µM | [9] > 100 µM | [20] > 100 µM | [10] > 100 µM | [11] > 100 µM | [12] > 100 µM | [13] > 100 µM | [14] > 100 µM | [15] > 100 µM | [16] > 100 µM | [17] > 100 µM | [18] > 100 µM

C=C1c2ccccc2Oc2nc3nc(N)c(C#N)c(N)c3c(N)c21
inactive: [1] 30.8 µM | [2] 43.7 µM | [19] 11.9 µM | [3] 19.5 µM | [4] 21.6 µM | [5] 19.1 µM | [6] 55.2 µM | [7] 14.6 µM | [8] 30.5 µM | [9] 16 µM | [10] 16.4 µM | [11] 19.3 µM | [12] 58.1 µM | [13] 21.6 µM | [14] 20 µM | [15] 41.8 µM | [16] 17.6 µM | [17] 37.6 µM | [18] 51.1 µM
